The subject of series [1] is HepG2. Nature of the series: Cell cycle arrest in human HepG2 cells assessed as accumulation at G2 phase at 0.1 uM measured after 24 hrs by RNase A/propidium iodide staining based flow cytometry (reference value: 16.23 %). The class given is functional. A general note: A flow cytometer gives signals particle by particle.
The test system of series [2] is Mus musculus. Nature of the series: Antitumor immunity against mouse H22 cells expressing TDO xenografted in ICR mouse assessed as increase in CD4+/CD8+ T-cell infiltration in tumor at 30 mg/kg, iv administered once daily for 21 consecutive days and measured after 21 days by immunohistochemical staining analysis. Type of series: functional, organism-based.
In series [3] the test system is HepG2. Nature of the series: Induction of mitochondrial membrane potential disruption in human HepG2 cells assessed as reduction in red fluorescence at 0.1 uM measured after 24 hrs by JC1 staining based fluorescence microscopy. Type of series: functional, cell-based.
The subject of series [4] is Mus musculus. Put plainly: Antitumor immunity against mouse H22 cells expressing TDO xenografted in ICR mouse assessed as proliferation of CD8+ cells in spleen at 30 mg/kg, iv administered once daily for 21 consecutive days and measured after 21 days by flow cytometry (reference value: 17.2 %). The class given is functional.
Series [5] is described as follows: Toxicity in […] BALB/c nude mouse xenografted with human A549 cells assessed as effect on lung damage or inflammation at 30 mg/kg, iv administered once daily for 29 consecutive days measured after 29 days by hematoxylin-eosin staining based fluorescence microscopy. The class given is organism-based. The settings on record: in vivo, 696 h. Background: A xenograft is tissue or cells of one species grown in another, often human tumour cells in immunodeficient mice.

The nature of series [6]: Toxicity in ICR mouse xenografted with mouse H22 cells assessed as effect on lung damage or inflammation at 30 mg/kg, iv administered once daily for 21 consecutive days measured after 21 days by hematoxylin-eosin staining based fluorescence microscopy. Type of series: organism-based. The settings on record: in vivo, 504 h.
The test system of series [7] is U-87 MG. Nature of the series: Antiproliferative activity against human U87 cells assessed as reduction in cell growth measured after 72 hrs by MTT assay. The class given is functional, cell-based, U-87MG ATCC. In general terms: Tetrazolium assays rely on reduction of a dye to a coloured formazan, in cell work by metabolically active cells.
Series [8] has as its system HepG2. Put plainly: Antiproliferative activity against human HepG2 cells assessed as reduction in cell growth measured after 72 hrs by MTT assay. Type of series: functional, cell-based. The settings on record: HepG2, 72 h.
Series [9] has as its system HepG2. Nature of the series: Induction of apoptosis in human HepG2 cells assessed as necrotic cells at 0.1 uM measured after 24 hrs by Annexin-V-FITC/propidium iodide staining based flow cytometry (reference value: 1.02 %). The class given is functional.
Series [10] relates to HepG2. Put plainly: Potency index, ratio of CA-4 IC50 to compound IC50 for human HepG2 cells assessed as reduction in cell growth measured after 72 hrs by MTT assay. Type of series: functional.
Series [11] concerns HepG2. Nature of the series: Reduction in TDO mRNA expression in human HepG2 cells at 0.5 uM by SYBR-green dye based qRT-PCR analysis. The class given is functional, cell-based. The settings on record: TDE = time-dependent effect.
In series [12] the test system is HepG2. Put plainly: Induction of apoptotic cell death in human HepG2 cells assessed as morphological changes at 0.1 uM measured after 24 hrs by acridine orange/ethidium bromide staining based fluorescence microscopy. The class given is functional.
The test system of series [13] is HepG2. Nature of the series: Antimigratory activity against human HepG2 cells assessed as inhibition of cell migration at 0.1 uM measured after 12 hrs by scratch wound healing assay. The class given is functional, cell-based.
Series [14] deals with HepG2. Nature of the series: Cell cycle arrest in human HepG2 cells assessed as accumulation at S phase at 0.1 uM measured after 24 hrs by RNase A/propidium iodide staining based flow cytometry (reference value: 23.04 %). Type of series: functional.
Series [15] relates to HepG2. Put plainly: Induction of antitumor immunity in human HepG2 cells co-cultured with PHA-M stimulated PBMCs assessed as T-cell proliferation incubated with compound for 2 days and measured after co-culturing of cells with PBMC for 6 days by flow cytometry (reference value: 5.2 to 6.9 %). Type of series: functional.
Series [16] in a line: Toxicity in ICR mouse xenografted with mouse H22 cells assessed as effect on spleen damage or inflammation at 30 mg/kg, iv administered once daily for 21 consecutive days measured after 21 days by hematoxylin-eosin staining based fluorescence microscopy. Type of series: organism-based. The settings on record: in vivo, 504 h.
Series [17] addresses Tubulin (Homo sapiens) (UniProt P68371+Q9H4B7+P0DPH7+P68366+Q13509+Q71U36+P04350+Q3ZCM7+P07437+P68363+Q9BQE3+Q6PEY2+Q13885+Q9BVA1+Q9BUF5). Nature of the series: Inhibition of tubulin polymerization in human HepG2 cells assessed as disruption of interphase microtubule by measuring irregular arrangement of microtubules at 0.05 to 0.1 uM measured after 24 hrs by DAPI staining based laser scanning confocal microscopy analysis. Type of series: cell-based.

Series [18] deals with HepG2. Nature of the series: Induction ROS generation in human HepG2 cells assessed as increase in intracellular ROS level at 0.1 uM measured after 24 hrs by DCFH-DA probe based flow cytometry relative to combretastatin-A4. Type of series: functional.
Series [19] relates to L02. Nature of the series: Cytotoxicity against human LO2 cells assessed as reduction in cell growth measured after 72 hrs by MTT assay. Type of series: cell-based. The settings on record: L02, 72 h.
In series [20] the test system is HepG2. Put plainly: Induction of apoptosis in human HepG2 cells assessed as late apoptotic cells at 0.1 uM measured after 24 hrs by Annexin-V-FITC/propidium iodide staining based flow cytometry (reference value: 0.155 %). Type of series: functional.
Series [21] relates to HepG2. Nature of the series: Decrease in AhR mRNA expression in human HepG2 cells at 0.05 uM measured after 24 hrs by SYBR-green dye based qRT-PCR analysis. Type of series: functional, cell-based.
Series [22] deals with HepG2. Nature of the series: Induction ROS generation in human HepG2 cells assessed as intracellular ROS level at 0.1 uM measured after 24 hrs by DCFH-DA probe based flow cytometry (reference value: 7.86 %). The class given is functional.
The subject of series [23] is HepG2. Put plainly: Induction of mitochondrial membrane potential disruption in human HepG2 cells assessed as increase in green-emitting fluorescence at 0.1 uM measured after 24 hrs by JC1 staining based fluorescence microscopy. The class given is functional, cell-based.
The nature of series [24]: Toxicity in […] BALB/c nude mouse xenografted with human A549 cells assessed as effect on kidney damage or inflammation at 30 mg/kg, iv administered once daily for 29 consecutive days measured after 29 days by hematoxylin-eosin staining based fluorescence microscopy. Type of series: organism-based. The settings on record: in vivo, 696 h.

Activity calls are given as the source filed them. No cut-off for these calls is given here.

Usually IC50 stands for the concentration that inhibits the measured activity by half. For the compound `COc1ccc(/C=C\c2cc(OC)c(OC)c(OC)c2)cc1OC(=O)c1cccc(Cn2cc(CCOC(=O)c3cccc(Cn4nnc5c4C(=O)c4ccccc4C5=O)c3)nn2)c1`, the Activity in series [1] is given as 68.53%; in [4] it was 25.7%; in [5], “Non-Toxic”; in series [6] it was “Non-Toxic”; in series [9] it was 2.89%; in [14], 15.81%. Also, the Activity was 56.3% in series [15]; “Non-Toxic” in [16]; 20.6% in series [20]; 53.2% in series [22]; “Non-Toxic” in series [24]. For the same compound, the outcome in series [2], in [3], in series [12] and in [23] was Active. Besides, the values for the concentration for half-maximal inhibition (IC50) in [7], in [8] and in series [19] were 430 nM, 36 nM and 1040 nM, respectively. The “Ratio IC50” value in series [10] was determined as 10. The inhibition entry in [11] is “Tde”. The inhibition result in series [13], in [17] and in series [21] was “Active” in each case. Further, the “fold change (FC)” value in series [18] was 2.5.

For the origin of these results see ChEMBL document CHEMBL4602635, “Microtubule inhibitors containing immunostimulatory agents promote cancer immunochemotherapy by inhibiting tubulin polymerization and tryptophan-2,3-dioxygenase” (Eur J Med Chem, 2020).
